{
  "source": "patent US20060177392A1",
  "about": "“Oil-based composition for acne” (priority 2005, published 2006)",
  "origin": "cited, not measured here",
  "key": {"[1]": {"details": "taken internally"}, "[2]": {"details": "typical dose 0.5 to 2 mg/kg body weight per 24 hours; human fetal abnormalities and spontaneous abortions"}},
  "data": [
    {"compound": "Vitamin A", "values": [
      {"measurement": "Single megadose that can induce brain swelling, headache, drowsiness, vomiting, and/or death", "setting": "[1]; single megadose", "value": "1,500,000 IU"},
      {"measurement": "Sustained dose that may be toxic", "setting": "[1]; sustained doses", "value": "over 50,000 IU"}
    ]},
    {"compound": "CC1=C(/C=C/C(C)=C/C=C/C(C)=C\\C(=O)O)C(C)(C)CCC1", "note": "[Accutane, 13-cis-retinoic acid]", "values": [
      {"measurement": "Teratogenicity", "setting": "[2]", "value": "often teratogenic"}
    ]}
  ]
}
